{
  "source": "the supplement of paper PMC10307832",
  "experiment_in_all_cases": "relative viability (nuclei count vs DMSO), 5 days (fraction); higher = more cells survive",
  "key": {"[1]": {"compound": "COC1=CC=C(C=C1)CN2C=CC3=C2C=C(C=C3)C(=O)NO + COc1cccc2cc(-c3nc([C@H]4CC[C@H](C(=O)O)CC4)n4ncnc(N)c34)[nH]c12 [OSI-027] (partner 0.5 µM)", "how_it_was_run": "(§1)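 Dosing by pin tool came one day after lung cancer cell lines were seeded in 1536-well plates, using either one drug or a fixed anchor-drug dose plus five library-drug doses (not always all listed) in √10 steps. After 5 days, nuclei were counted on 4× images. Relative viability is treated-well nuclei count divided by vehicle-well nuclei count, and values are medians of duplicate plates.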"}, "[2]": {"compound": "COC1=CC=C(C=C1)CN2C=CC3=C2C=C(C=C3)C(=O)NO + N=C(N)NC(=N)NCCc1ccccc1 [Phenformin] (partner 250 µM)", "how_it_was_run": "as §1"}, "[3]": {"compound": "COC1=CC=C(C=C1)CN2C=CC3=C2C=C(C=C3)C(=O)NO + O=C(c1cc(Cc2n[nH]c(=O)c3ccccc23)ccc1F)N1CCN(C(=O)C2CC2)CC1 [Olaparib] (partner 8 µM)", "how_it_was_run": "as §1"}, "Veliparib + Luminespib": {"compound": "C[C@]1(c2nc3c(C(N)=O)cccc3[nH]2)CCCN1 [Veliparib] + CCNC(=O)c1noc(-c2cc(C(C)C)c(O)cc2O)c1-c1ccc(CN2CCOCC2)cc1 [Luminespib] (partner 0.01 µM)", "how_it_was_run": "as §1"}},
  "data": [
    {"cell line": "SW 1573", "values": [
      {"measurement": "relative viability", "setting": "[1]; first compound 0.253 µM", "value": 0.616},
      {"measurement": "relative viability", "setting": "[1]; first compound 0.8 µM", "value": 0.785},
      {"measurement": "relative viability", "setting": "[1]; first compound 2.53 µM", "value": 0.519},
      {"measurement": "relative viability", "setting": "[1]; first compound 8 µM", "value": 0.396},
      {"measurement": "relative viability", "setting": "[2]; first compound 0.253 µM", "value": 0.368},
      {"measurement": "relative viability", "setting": "[2]; first compound 0.8 µM", "value": 0.426},
      {"measurement": "relative viability", "setting": "[2]; first compound 2.53 µM", "value": 0.379},
      {"measurement": "relative viability", "setting": "[2]; first compound 8 µM", "value": 0.331},
      {"measurement": "relative viability", "setting": "[3]; first compound 0.253 µM", "value": 0.543},
      {"measurement": "relative viability", "setting": "[3]; first compound 0.8 µM", "value": 0.465},
      {"measurement": "relative viability", "setting": "[3]; first compound 2.53 µM", "value": 0.432},
      {"measurement": "relative viability", "setting": "[3]; first compound 8 µM", "value": 0.334},
      {"measurement": "relative viability", "setting": "Veliparib + Luminespib; first compound 0.02 µM", "value": 0.169},
      {"measurement": "relative viability", "setting": "Veliparib + Luminespib; first compound 0.06325 µM", "value": 0.204},
      {"measurement": "relative viability", "setting": "Veliparib + Luminespib; first compound 0.2 µM", "value": 0.169},
      {"measurement": "relative viability", "setting": "Veliparib + Luminespib; first compound 0.6325 µM", "value": 0.254},
      {"measurement": "relative viability", "setting": "Veliparib + Luminespib; first compound 2 µM", "value": 0.214}
    ]}
  ]
}
